As a reminder, the IC50 is the concentration needed to halve the response being measured.

Series [1] deals with P. falciparum chloroquine-resistant Dd2 strain. As to the kind of experiment: Antiplasmodial activity, SYBR Green I fluorescence-based assay. The series is classed as cell-based. The note with it: for Selectivity: cytotoxicity IC50 (NIH 3T3) over Dd2 IC50. As to the method:
Fractions were derived from 20 different marine species. […] All fractions were then analyzed by LC-MS to identify active extracts with the greatest potential for novelty.
(§1) Antiplasmodial activity was tested in P falciparum chloroquine resistant Dd2, and the cytotoxicity was assessed in NIH 3T3 fibroblasts cells.
(§2) Asynchronous cultures were exposed to different concentrations of inhibitor for 72 hrs. […] The cytotoxicity against NIH 3T3 fibroblasts was evaluated using an MTS assay [(3-(4,5-dimethylthiazol-2-yl)-5-(3-carboxymethoxyphenyl)-2-(4-sulfophenyl)-2H-tetrazolium), CellTiter 96® Aqueous non-radioactive cell proliferation assay, Promega

The nature of series [2]: Cytotoxicity against NIH 3T3 fibroblasts (MTS assay). The series is classed as cell-based. The following applies: mouse, Table 1, NIH 3T3 fibroblasts cells. On the procedure: as §1, §2
In general terms: Formazan colour is commonly taken as a measure of viable cells.

For series [3] the following is noted: reported in the past, Gutierrez et. al. Pharmaceutical Biol. 2005, 43, 762-765; cited from earlier work.
In another series the test system is NIH 3T3 fibroblasts. As to the kind of experiment: Cytotoxicity against NIH 3T3 fibroblasts (MTS assay). The series is classed as cell-based. The note with it: Table 2, MTS assay. On the procedure: as §1, §2
The conditions of series [4]: has been shown, no source given; cited from earlier work.
The mark [5] stands for this setting: Plasmodium falciparum, Table 1, P falciparum chloroquine resistant Dd2, read-out: Dd2 IC50.
Where [6] appears, read: Table 2, chloroquine-resistant Dd2 strain, asynchronous cultures, 72 hrs, read-out: P. falciparum IC50.
Setting [7] is: Plasmodium falciparum, Table 2, chloroquine-resistant Dd2 strain, asynchronous cultures, 72 hrs, read-out: P. falciparum IC50.

Where two headings read alike, the source gives them in different places.

In the case of `C/C1=C\CC(C)(C)/C=C/C(=O)[C@@H](C)CCC[C@H](C)CC(=O)C1` [Compound 3], the IC50 in series [1] (Plasmodium falciparum, Dd2 strain printed for compound 3 only, strain not printed for 4 and HB39.A10, read-out: IC50) is 2.5 µM; in series [1] (setting [5]), 1.77 µM; in series [2] (NIH 3T3 fibroblast cells) it was 20 µM. In series [1] (Table 1), the Selectivity is recorded as 11.34.
As to `COC1=C(Br)[C@H](O)[C@](O)(CC#N)C=C1Br` [Aeroplysin-1, aeroplysinin-1], the anti-malarial activity entry in series [3] is listed as “anti-malarial activity”.
On to Dragmacidin D [Dragmacidin D 11], for which the results for the IC50 (in series [1] (setting [6]); with NIH 3T3 fibroblasts) were 5.2 µM and 27.7 µM, respectively.
As for `CN1CC(c2c[nH]c3c(Br)c(Br)cc(O)c23)NCC1c1c[nH]c2cc(Br)ccc12` (stereo not shown) [Dragmacidin 6, Dragmacidin], the IC50 in series [1] (setting [6]) is 6.4 µM; with NIH 3T3 fibroblasts it was 7.8 µM.
The corresponding values for `NC(N)=NCCSc1nc(-c2c[nH]c3cc(Br)ccc23)cnc1-c1c[nH]c2cc(Br)ccc12` [Dragmacidin G 12, Dragmacidin G] are 6.4 µM and 7.8 µM.
`NCC(c1c[nH]c2ccccc12)c1c[nH]c2ccccc12` [2,2 bisindol-3-ylethyl amine 9, 2,2 bisindol-3-ylethyl amine]: the half-inhibitory concentration (IC50) in series [1] (setting [7]) was 6.5 µM; in the series on NIH 3T3 fibroblasts (Mus musculus, NIH3T3) it was 11.5 µM.
`C/C1=C/C(=O)C/C(C)=C/CC(C)(C)/C=C/C(=O)[C@@H](C)CCC1` [Compound 2]: the half-maximal inhibitory concentration (IC50) in series [1] (setting [5]) stood at 1.56 µM; in series [2] (NIH 3T3 fibroblast cells), 21.8 µM. In series [1] (Table 1), this compound returned a Selectivity of 13.94.
`COc1ccc(/C=C/CCCCC(C)[C@H](O)[C@@H](O)C2NC(=O)C[C@@H](O)CNC(=O)CNC(=O)[C@@H](Cc3c(C(=O)O)[nH]c4ccccc34)NC(=O)CN(C)C(=O)C[C@@]3(O)NC(=O)[C@H](O)C3NC(=O)[C@H]2O)cc1` (stereo partly shown) [Compound 4, microsclerodermin A]: the IC50 in series [1] (Plasmodium falciparum, DD2) was found to be 0.73 µM; in series [1] (Plasmodium falciparum, DD2, read-out: Dd2 IC50) it was 0.075 µM; in series [2], 3.53 µM. The same compound registered a Selectivity in series [1] (Table 1) of 47.07.
With `Brc1ccc2c(-c3cnc(-c4c[nH]c5cc(Br)ccc45)[nH]3)c[nH]c2c1` [Nortopsentin A, reference compound], the IC50 was 0.6 µM in series [1] (setting [7]) and 6 µM with NIH 3T3 fibroblasts (Mus musculus, NIH3T3).
Take `O=C1NC[C@H](c2c[nH]c3cc(Br)ccc23)N=C1c1c[nH]c2cc(Br)ccc12` [Hamacanthin B 8, Hamacanthin B]: the IC50 in series [1] (setting [6]) was more than 20.6 µM; with NIH 3T3 fibroblasts it was 38.6 µM.
Consider `O=C1N[C@@H](c2c[nH]c3cc(Br)ccc23)CN=C1c1c[nH]c2cc(Br)ccc12` [Hamacanthin A 7, Hamacanthin A], for which the concentration for half-maximal inhibition (IC50) was 3.2 µM in series [1] (setting [6]) and 30.4 µM in the series with NIH 3T3 fibroblasts.
Take `CCC(=O)NCCc1c2c3c(ccnc3c3ncsc13)-c1ccccc1N2` [Compound 5, dercitamide]: the cytotoxicity result in series [4] is given as “very moderate cytotoxicity”. Further, the concentration for half-maximal inhibition (IC50) was 2.3 µM in series [1] (Dd2 strain printed for compound 3 only, strain not printed for 4 and HB39.A10, read-out: IC50); 1.05 µM in series [1] (setting [5]); 14.8 µM in series [2] (NIH 3T3 fibroblast cells). The Selectivity in series [1] (Table 1) is 14.13.

Values taken from US9181251B2, “Anti-malarial compounds from marine natural products” (University of Central Florida Research Foundation, Inc., priority 2012, dated 2015).
